Data as given in publication PMC8321240, “Cell-Type-Specific High Throughput Toxicity Testing in Human Midbrain Organoids” (Frontiers in Molecular Neuroscience, 2021).

Legend:
[1] = tested on: automated midbrain organoids (AMOs); assay: Primary organoid viability screen (ATP-based CellTiter-Glo 3D); assay type: cell-based, human; details: approx. 100 μM, 48 or 96 h, two AMO lines
Procedure: We cultured AMOs for 47 days in our automated system as described above. On day 47, we exchanged the organoid medium to a minimal tox medium (TM, consisting of DMEM/F-12 with 1% N2 supplement and 1% penicillin/streptomycin/glutamine) to reduce possible interference from antioxidants in the B27 media supplement. The next day, we treated the AMOs with the compounds from the library at a concentration of 100 μM in TM with some deviations due to solubility (see Supplementary Table 1 for a complete list of compounds including their final concentrations in the screen). DMSO control samples contained 0.5% (v/v) DMSO, which is equivalent to the amount of solvent in the samples that received compound treatment. After 48 h of incubation with the compounds, we either directly processed the organoids for the 48-h time point or renewed the compounds in TM once to achieve 96 h of incubation. […] We recorded the luminescence immediately after the transfer using a Synergy Mx plate reader (BioTek). […]
In detail: All compounds including their controls were arrayed on a single 96-well plate (see Supplementary Table 1 for well positions), and replicated across three plates for a total of n = 3 replicates per condition (except AMO line 2 at 48 h n = 2). […] During our analysis, we first averaged the two technical replicates from the luminescence measurement in Microsoft Excel, yielding one averaged luminescence value for each well of the original 96-well AMO plates. Then, we normalized the luminescence detected in each well to the mean luminescence of the four DMSO controls of the same plate to get a relative organoid viability value. Normalization was performed separately for each plate to account for and correct for potential differences during the luminescence measurements. […] We further assessed the homogeneity of the AMOs by calculating the coefficient of variation (CV) for the relative viabilities of the DMSO controls (i.e., we divided the standard deviations by the corresponding means and averaged the resulting CV values for the DMSO controls). […]

[2] = tested on: automated midbrain organoids (AMOs); assay: Dose-response analysis, ATP-based overall AMO viability; assay type: cell-based, human; details: 0.01-1,000 μM, 48 h + 6 days; viability, Map2 and TH readouts
Procedure: AMOs were cultured as described above for 47 days. On day 47, we exchanged their medium to tox medium (TM), initially without the addition of any compounds. […] For each compound, we included n = 8 controls per compound treated with the corresponding solvent at an amount equivalent to the highest compound concentration. To assess viability and cell type-specific toxicity in parallel and under the same conditions, we treated all samples with the compounds for 48 h, then exchanged their medium to standard culture medium without compounds and maintained them for an additional 6 days before analysis to allow breakdown and removal of cellular debris. Organoid viability and cell type-specific toxicity were analyzed as described for the primary screens. Here, we acquired five confocal planes spaced 36.6 μm apart in our Operetta high content imager. The image analysis of the AMOs for cell type-specific toxicity assessment required minor adjustments to account for the individual properties of the staining. […] For Map2, we performed Gaussian smoothing with a width of 10 px and omitted the additional sliding parabola filter. The other steps were performed as outlined for the primary cell-type-specific toxicity screen. […] In detail: The dose-response series, including the individual solvent controls, was performed for every compound on a separate 96-well plate of AMOs with initially n = 8 organoids per concentration. […] Data processing, including normalizations, was performed for each individual compound/plate as outlined above for the primary screens. Significant differences between the Map2 and TH content were also determined in GraphPad Prism as described for the primary screen and with the same parameters (multiple comparisons were performed for the different concentrations instead of compounds).

[3] = tested on: TH+ dopaminergic and Map2+ general neurons in AMOs; assay: Dose-response analysis, TH and Map2 content by high content imaging; assay type: cell-based, human; details: 48 h + 6 days
Procedure: All processing steps were conducted in an HTS-compatible automated liquid handling system (ALHS, a Biomek FXP liquid handling station). To quantify different cellular subpopulations within the AMOs, we employed our previously described (Renner et al., [2020], [2021b]) ALHS-compatible workflow for combined whole-mount staining and clearing, with minor modifications. We fixed the AMOs with 4% PFA (VWR) for 10–15 min and stained the entire aggregates with primary and secondary antibodies for 6 days each. The antibodies used in this study were as follows. Primary: mouse anti-Map2 (1:1,000, Merck Millipore, cat#: MAB3418) and rabbit anti-TH (1:500, Abcam, cat#: ab112). Secondary: donkey anti-mouse IgG, Alexa Fluor 488 conjugated (1:1,000, Thermo Fisher, cat#: A-21202) and donkey anti-rabbit IgG, Alexa Fluor 647 conjugated (1:1,000, Thermo Fisher, cat#: A-31573). The antibodies were diluted in blocking and permeabilization solution consisting of 6% BSA, 0.5% Triton-X 100 (Roth), 0.1% (w/v) sodium azide (Sigma-Aldrich) in PBS (Sigma-Aldrich) and immediately added after fixation following a triple rinse with PBS. We renewed the antibody solutions once after three days. As a nuclear counter stain, we added DAPI (1 μg/ml, Sigma-Aldrich) to the solution containing the secondary antibodies. Between primary and secondary antibody application and after finishing the secondary antibody incubation, we washed the samples overnight with 0.1% Triton X-100 in PBS, with a total of five exchanges of the washing solution. After the whole-mount staining, we performed BABB-based tissue clearing (Dent et al., [1989]) to allow image acquisition with single-cell resolution of the entire aggregates. For this purpose, we first dehydrated the AMOs via a stepwise methanol (Roth) series (25%, 50%, 70%, 90%, and 100%, each for 15 min). For clearing and imaging, we transferred them to organic solvent-resistant cyclo-olefin 96-well flat-bottom plates (“Screenstar”, Greiner Bio-One). Finally, we incubated the samples for 30 min in 1:1 (v/v) methanol/BABB (BABB consisted of benzyl alcohol (Sigma-Aldrich) and benzyl benzoate (Sigma-Aldrich) at a 1:1 (v/v) ratio) and then kept them in 100% BABB in the dark for storage and subsequent automated high content confocal fluorescent analysis.
We prepared and treated the AMOs with the compounds as described for the primary viability screen. On day 50, after 48 h of compound incubation, we replaced the medium with standard AMO medium and maintained the AMOs for 6 additional days under standard culture conditions. This additional time allows the cells killed by the compounds to be cleared from the aggregates. After the 6 days, we fixed the organoids with 4% PFA, whole-mount-stained them for TH and Map2, and tissue-cleared them as described above. To achieve uniform aggregate positioning within the wells before imaging, we tilted the plates off the horizontal plane at 60 degrees for a minimum of 5 min. We performed automated image acquisition of entire 96-well plates on an Operetta high content imager (Perkin Elmer) and analyzed images in the Harmony 4.1 software and/or Columbus version 2.6.0 as previously described (Renner et al., [2020]), with adjustments to account for the individual properties of the staining and samples. We acquired three medial planes for each organoid, spaced 36.6 μm apart to avoid double-sampling individual morphological features. For the analysis, we defined the organoid region in each image by summing all channels, removed small localized features with a median filter (10 px), and identified putative organoids/regions of interest (ROIs) with the “find image region” function. To identify bona fide AMOs and exclude image artifacts and dust, we selected the ROIs with an area >9,000 μm^2, roundness >0.4, and mean DAPI intensity >190 arbitrary brightness units (abu).

[4] = tested on: automated midbrain organoids (AMOs); assay: Viability of 3D AMOs (CellTiter-Glo 3D) in the 2D vs 3D comparison; assay type: cell-based, human; details: for IC50: Homo sapiens, 48 h exposure from day 50
Procedure: We cultured AMOs for 47 days in our automated system as described above. On day 47, we exchanged the organoid medium to a minimal tox medium (TM, consisting of DMEM/F-12 with 1% N2 supplement and 1% penicillin/streptomycin/glutamine) to reduce possible interference from antioxidants in the B27 media supplement. The next day, we treated the AMOs with the compounds from the library at a concentration of 100 μM in TM with some deviations due to solubility (see Supplementary Table 1 for a complete list of compounds including their final concentrations in the screen). DMSO control samples contained 0.5% (v/v) DMSO, which is equivalent to the amount of solvent in the samples that received compound treatment. After 48 h of incubation with the compounds, we either directly processed the organoids for the 48-h time point or renewed the compounds in TM once to achieve 96 h of incubation. Following either 48 or 96 h of compound incubation, we used the CellTiter-Glo 3D cell viability assay (Promega) to measure the viability of individual organoids, as previously described (Renner et al., [2020]). Briefly, the 96-well plates of AMOs and the reagents were brought to room temperature for 30 min. We adjusted the media volume of each well to 55 μl and added an equal volume (55 μl) of the CellTiter-Glo 3D reagent. Next, the samples were shaken on a Thermomixer (Eppendorf) at 900 rpm for 5 min and then incubated for 25 min at room temperature while protected from light. To minimize signal cross-talk between adjacent wells, we transferred the contents of the clear 96-well culture plates to white/opaque 384-well Lumitrac plates (Greiner) with two technical replicates (20 μl each) per sample, after the incubation. We recorded the luminescence immediately after the transfer using a Synergy Mx plate reader (BioTek). We outputted the results to Microsoft Excel for reformatting and then transferred them to GraphPad Prism v9.0.1 (Graphpad Software, Inc.) for plotting and statistical analysis.
To compare the toxic effects of compounds on AMOs and 2D-cultured midbrain dopaminergic neurons, we seeded and cultured both in parallel and generated them from the same smNPC starting cell population. For 2D dopaminergic neuron differentiation, smNPCs were seeded in 1% (v/v in KO-DMEM/F-12) Matrigel-coated 6-well plates and standard smNPC medium, following digestion by accutase as described above. From day 2 onwards, they were treated identically with the AMOs (i.e., they received the same media at the same timepoints). To work with the 2D dopaminergic neurons in a screening setting (and have the same plate format as the AMOs), we reseeded them to flat-bottom 96-well plates (“μCLEAR”, black, Greiner) at a density of 70,000 cells/well on day 48. On day 49, the medium of both 2D mDA neurons and 3D AMOs was exchanged to tox medium. The next day, we treated them with different concentrations (0.01, 0.1, 1, 10, 50, 100, 200, 500, and 1,000 μM; controls received the corresponding solvent at an amount equivalent to the highest compound concentration; n = 6 per concentration) of the compounds lindane (Sigma-Aldrich, in ethanol) and 6-hydroxydopamine hydrochloride (Sigma Aldrich, in DMSO) in tox medium. After 48 h of incubation, we measured the samples’ viability. For the AMOs, we used the CellTiter-Glo 3D cell viability assay as described above. We measured the 2D mDA neuron viability with the CellTiter-Glo 2.0 cell viability assay (Promega) according to the manufacturer’s instructions. In short, we brought the sample plates and reagents to room temperature for 30 min. We adjusted the media volume of the samples to 50 μl and added an equal volume (50 μl) of the CellTiter-Glo 2.0 reagent. We let the plate shake for 2 min at 900 rpm on a Thermomixer and then incubated them for 10 min at room temperature and protected from light. Immediately afterward, we measured the luminescence on a Synergy Mx plate reader. […]

[5] = tested on: 2D-cultured midbrain dopaminergic (mDA) neurons; assay: Viability of 2D-cultured mDA neurons (CellTiter-Glo 2.0) in the 2D vs 3D comparison; assay type: cell-based; details: Homo sapiens, Neuron, 2D mDA neurons, 48 h exposure from day 50
Procedure: To compare the toxic effects of compounds on AMOs and 2D-cultured midbrain dopaminergic neurons, we seeded and cultured both in parallel and generated them from the same smNPC starting cell population. For 2D dopaminergic neuron differentiation, smNPCs were seeded in 1% (v/v in KO-DMEM/F-12) Matrigel-coated 6-well plates and standard smNPC medium, following digestion by accutase as described above. From day 2 onwards, they were treated identically with the AMOs (i.e., they received the same media at the same timepoints). To work with the 2D dopaminergic neurons in a screening setting (and have the same plate format as the AMOs), we reseeded them to flat-bottom 96-well plates (“μCLEAR”, black, Greiner) at a density of 70,000 cells/well on day 48. On day 49, the medium of both 2D mDA neurons and 3D AMOs was exchanged to tox medium. The next day, we treated them with different concentrations (0.01, 0.1, 1, 10, 50, 100, 200, 500, and 1,000 μM; controls received the corresponding solvent at an amount equivalent to the highest compound concentration; n = 6 per concentration) of the compounds lindane (Sigma-Aldrich, in ethanol) and 6-hydroxydopamine hydrochloride (Sigma Aldrich, in DMSO) in tox medium. After 48 h of incubation, we measured the samples’ viability. For the AMOs, we used the CellTiter-Glo 3D cell viability assay as described above. We measured the 2D mDA neuron viability with the CellTiter-Glo 2.0 cell viability assay (Promega) according to the manufacturer’s instructions. In short, we brought the sample plates and reagents to room temperature for 30 min. We adjusted the media volume of the samples to 50 μl and added an equal volume (50 μl) of the CellTiter-Glo 2.0 reagent. We let the plate shake for 2 min at 900 rpm on a Thermomixer and then incubated them for 10 min at room temperature and protected from light. Immediately afterward, we measured the luminescence on a Synergy Mx plate reader. We outputted the results to Microsoft Excel and GraphPad Prism v9.0.1 for reformatting, plotting, and analysis. Data processing was performed as outlined for the CellTiter-Glo 3D-based viability assay above, except for the averaging of technical replicates, as measurements were performed directly in the culture plate without additional technical replicates.
All other data analysis steps including the statistical analysis to identify significant differences in toxicity between 2D and 3D (via multiple unpaired t-tests with the same parameters as above, corrected for using the Bonferroni-Dunn method, and considering padj <0.05 as significant), as well as dose-response curve fitting, were performed as described in detail above. The IC50 values were taken from the same regression/analysis as the dose-response curves.

[6] = tested on: 2D cultured dopaminergic neurons; set-up: method as in Sharma et al., 2010; details: ref Sharma et al., 2010; cited from earlier work
[7] = 0.01-1,000 μM (rotenone up to 100 μM), both AMO lines

| Structure (SMILES) | toxicity in the primary screens [1] | overall toxicity in the dose-response experiments [2] | Map2 content (general neurons) [3, 7] | TH content (dopaminergic neurons) [3, 7] | TH levels compared to Map2 levels ([3]; dose-response, padj < 0.05) | concentrations with significant 2D vs 3D viability difference ([4]; AMO line 1, 48 h) [µM] | concentrations with significant 2D vs 3D viability difference ([4]; AMO line 2, 48 h) [µM] | IC50 ([4]; AMO line 1, 3D) [µM] | IC50 ([4]; AMO line 2, 3D) [µM] | toxicity in 3D AMOs compared with 2D-cultured dopaminergic neurons ([4]; both cell lines, 48 h, 0.01-1,000 μM, padj < 0.05) | IC50 ([5]; AMO line 1 cell line) [µM] | IC50 ([5]; AMO line 2 cell line) [µM] | toxicity of lindane alone [6] |
| --- | --- | --- | --- | --- | --- | --- | --- | --- | --- | --- | --- | --- | --- |
| O=C1C2CC=CCC2C(=O)N1SC(Cl)(Cl)Cl (centres unmarked) [captan] | intermediate toxicity | intermediate compared to ASS and the more toxic compounds | reduced | reduced | significantly reduced TH levels compared to Map2 over a broad range of concentrations |  |  |  |  |  |  |  |  |
| Cl[C@H]1[C@H](Cl)[C@@H](Cl)[C@@H](Cl)[C@H](Cl)[C@H]1Cl [lindane] | strong possible toxicity |  |  |  |  | ≥ 200 | 200 | 130 | 130 | significantly more toxic in AMOs than in the 2D-cultured dopaminergic neurons | 202 | 201 | only mild toxicity |
